Laboratory results taken from article PMC11357638 (Molecules, 2024).
Substitutions are numbered along the chain they refer to. “And” between values parts separate entries of the source, which are not always exact repeats. Identical values can stand only once.

Experiments:
[1] = biological target: T1, human TRPM8 (hTRPM8) channels (Homo sapiens, UniProt Q7Z2W7); assay: Whole-cell patch-clamp selectivity, hTRPM8 in HEK293T cells; format: cell-based; details: HEK-293T; 1000 μM CA, current caused by 500 μM menthol, mean ± SD, n = 5
T1 construct: expressed in transfected cells; host or cells: HEK293T
T1 sequence (Q7Z2W7 whole entry): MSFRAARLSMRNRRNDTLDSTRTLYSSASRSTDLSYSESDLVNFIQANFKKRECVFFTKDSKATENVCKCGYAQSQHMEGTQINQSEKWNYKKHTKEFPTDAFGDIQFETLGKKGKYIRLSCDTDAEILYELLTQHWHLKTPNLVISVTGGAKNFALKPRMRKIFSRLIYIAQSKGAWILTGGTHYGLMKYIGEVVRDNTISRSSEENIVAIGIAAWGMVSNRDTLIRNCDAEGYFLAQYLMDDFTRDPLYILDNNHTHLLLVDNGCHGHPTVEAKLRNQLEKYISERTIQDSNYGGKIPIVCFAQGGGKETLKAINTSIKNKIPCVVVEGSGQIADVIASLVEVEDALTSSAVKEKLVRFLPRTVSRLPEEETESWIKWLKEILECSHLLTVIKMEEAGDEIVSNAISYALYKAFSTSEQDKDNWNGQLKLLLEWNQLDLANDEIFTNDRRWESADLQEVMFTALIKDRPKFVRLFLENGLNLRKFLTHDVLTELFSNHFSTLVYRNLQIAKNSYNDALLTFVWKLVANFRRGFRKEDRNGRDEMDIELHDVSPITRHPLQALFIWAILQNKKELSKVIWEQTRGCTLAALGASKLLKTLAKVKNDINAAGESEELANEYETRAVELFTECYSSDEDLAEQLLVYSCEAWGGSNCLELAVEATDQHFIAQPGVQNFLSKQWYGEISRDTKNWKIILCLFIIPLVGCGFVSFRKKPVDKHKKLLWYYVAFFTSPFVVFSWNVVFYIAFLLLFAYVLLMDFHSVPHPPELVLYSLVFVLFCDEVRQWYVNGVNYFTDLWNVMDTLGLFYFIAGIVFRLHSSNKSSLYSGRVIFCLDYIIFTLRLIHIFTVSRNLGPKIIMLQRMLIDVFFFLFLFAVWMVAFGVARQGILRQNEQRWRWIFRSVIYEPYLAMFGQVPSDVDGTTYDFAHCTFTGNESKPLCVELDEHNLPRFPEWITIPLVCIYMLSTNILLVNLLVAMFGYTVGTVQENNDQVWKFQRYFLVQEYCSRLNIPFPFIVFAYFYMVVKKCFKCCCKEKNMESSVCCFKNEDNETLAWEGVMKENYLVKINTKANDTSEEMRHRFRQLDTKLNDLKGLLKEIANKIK

[2] = biological target: T2, hTRPV3 L669A mutant (Homo sapiens, UniProt Q8NET8, L669A); assay: cell-based
T2 sequence (Q8NET8 1-790 L669A): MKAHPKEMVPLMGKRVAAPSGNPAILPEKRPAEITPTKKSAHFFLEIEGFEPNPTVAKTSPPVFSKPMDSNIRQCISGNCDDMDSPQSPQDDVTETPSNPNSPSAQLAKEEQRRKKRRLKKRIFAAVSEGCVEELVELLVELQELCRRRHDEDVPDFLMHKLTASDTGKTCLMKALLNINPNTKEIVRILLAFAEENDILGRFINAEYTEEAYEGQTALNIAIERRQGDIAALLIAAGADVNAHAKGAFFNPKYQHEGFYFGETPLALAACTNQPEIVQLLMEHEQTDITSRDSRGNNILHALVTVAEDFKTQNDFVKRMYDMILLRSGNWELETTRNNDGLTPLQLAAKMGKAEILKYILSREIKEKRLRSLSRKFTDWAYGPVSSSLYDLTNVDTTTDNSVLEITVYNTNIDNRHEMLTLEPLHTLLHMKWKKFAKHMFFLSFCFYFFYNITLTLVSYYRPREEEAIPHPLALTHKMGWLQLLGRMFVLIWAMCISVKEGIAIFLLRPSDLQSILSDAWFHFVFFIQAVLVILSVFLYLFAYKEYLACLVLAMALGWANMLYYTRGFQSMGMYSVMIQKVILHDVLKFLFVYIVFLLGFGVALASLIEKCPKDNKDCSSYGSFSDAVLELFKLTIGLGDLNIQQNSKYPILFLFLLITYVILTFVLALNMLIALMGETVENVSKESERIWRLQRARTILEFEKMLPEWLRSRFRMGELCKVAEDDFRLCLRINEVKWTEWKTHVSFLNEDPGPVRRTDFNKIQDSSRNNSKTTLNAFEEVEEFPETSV

[3] = biological target: T3, human TRPV3 (hTRPV3) channel (Homo sapiens, UniProt Q8NET8); assay: Whole-cell patch-clamp of hTRPV3 currents in transfected HEK293T cells; format: cell-based; details: WT hTRPV3 in HEK293T, whole-cell, activated by 50 μM 2-APB, at +80 mV, Hill fit, mean ± SD; read-out: IC50, inhibition of hTRPV3 currents
T3 construct: expressed in transfected cells; host or cells: HEK293T
T3 sequence (Q8NET8 1-790): T2 sequence (Q8NET8 1-790 L669A) with A669L

[4] = biological target: T4, hTRPV3 I637A mutant (Homo sapiens, UniProt Q8NET8, I637A); assay: Whole-cell patch-clamp of hTRPV3 I637A mutant in HEK293T cells; format: cell-based
T4 construct: expressed in transfected cells; host or cells: HEK293T
T4 sequence (Q8NET8 1-790 I637A): T2 sequence (Q8NET8 1-790 L669A) with I637A, A669L

[5] = system: HEK293T cells; assay: Cell viability of HEK293T cells (CCK-8 assay); format: cell-based, human; details: CA 1 mM, CCK-8, 6 hours treatment
[6] = biological target: T5, human TRPA1 (hTRPA1) channels (Homo sapiens, UniProt O75762); assay: Whole-cell patch-clamp selectivity, hTRPA1 in HEK293T cells; format: cell-based; details: CA at 1000 μM, current induced by AITC at 300 μM, mean ± SD, n = 5
T5 construct: expressed in transfected cells; host or cells: HEK293T
T5 sequence (O75762 whole entry): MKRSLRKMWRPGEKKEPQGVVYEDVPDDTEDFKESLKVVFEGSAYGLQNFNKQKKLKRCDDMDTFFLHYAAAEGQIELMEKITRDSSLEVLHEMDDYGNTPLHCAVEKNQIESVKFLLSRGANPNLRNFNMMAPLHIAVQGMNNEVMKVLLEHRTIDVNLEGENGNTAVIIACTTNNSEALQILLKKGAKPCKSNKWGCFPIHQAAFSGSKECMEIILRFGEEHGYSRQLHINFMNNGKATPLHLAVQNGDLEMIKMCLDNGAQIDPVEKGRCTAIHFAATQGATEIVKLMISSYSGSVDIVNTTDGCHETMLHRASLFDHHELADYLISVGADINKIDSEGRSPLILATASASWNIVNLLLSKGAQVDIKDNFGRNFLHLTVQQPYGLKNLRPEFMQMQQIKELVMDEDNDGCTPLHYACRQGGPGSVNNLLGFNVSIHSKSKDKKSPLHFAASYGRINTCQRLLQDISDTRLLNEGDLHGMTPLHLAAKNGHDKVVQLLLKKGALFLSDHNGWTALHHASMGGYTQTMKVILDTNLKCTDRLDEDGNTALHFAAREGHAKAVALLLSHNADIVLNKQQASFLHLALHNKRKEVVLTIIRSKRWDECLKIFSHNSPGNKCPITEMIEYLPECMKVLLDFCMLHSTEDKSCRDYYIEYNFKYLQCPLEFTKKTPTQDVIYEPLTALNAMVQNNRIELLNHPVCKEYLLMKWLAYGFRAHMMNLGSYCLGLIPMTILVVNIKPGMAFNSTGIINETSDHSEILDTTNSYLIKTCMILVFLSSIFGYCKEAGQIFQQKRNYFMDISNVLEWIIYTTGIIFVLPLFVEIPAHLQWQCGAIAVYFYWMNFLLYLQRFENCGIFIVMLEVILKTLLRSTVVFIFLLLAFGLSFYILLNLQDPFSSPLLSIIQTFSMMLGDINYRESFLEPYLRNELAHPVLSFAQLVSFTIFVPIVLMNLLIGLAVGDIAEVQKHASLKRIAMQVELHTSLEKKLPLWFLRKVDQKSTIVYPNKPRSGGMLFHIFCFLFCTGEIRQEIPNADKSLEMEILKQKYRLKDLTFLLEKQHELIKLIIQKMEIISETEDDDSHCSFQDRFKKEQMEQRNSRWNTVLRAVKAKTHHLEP

[7] = biological target: T6, human TRPV1 (hTRPV1) channels (Homo sapiens, UniProt Q8NER1); assay: Whole-cell patch-clamp selectivity, hTRPV1 in HEK293T cells; format: cell-based; details: HEK-293T; CA at 1000 μM, current caused by 1 μM capsaicin, mean ± SD, n = 5
T6 construct: expressed in transfected cells; host or cells: HEK293T
T6 sequence (Q8NER1 whole entry): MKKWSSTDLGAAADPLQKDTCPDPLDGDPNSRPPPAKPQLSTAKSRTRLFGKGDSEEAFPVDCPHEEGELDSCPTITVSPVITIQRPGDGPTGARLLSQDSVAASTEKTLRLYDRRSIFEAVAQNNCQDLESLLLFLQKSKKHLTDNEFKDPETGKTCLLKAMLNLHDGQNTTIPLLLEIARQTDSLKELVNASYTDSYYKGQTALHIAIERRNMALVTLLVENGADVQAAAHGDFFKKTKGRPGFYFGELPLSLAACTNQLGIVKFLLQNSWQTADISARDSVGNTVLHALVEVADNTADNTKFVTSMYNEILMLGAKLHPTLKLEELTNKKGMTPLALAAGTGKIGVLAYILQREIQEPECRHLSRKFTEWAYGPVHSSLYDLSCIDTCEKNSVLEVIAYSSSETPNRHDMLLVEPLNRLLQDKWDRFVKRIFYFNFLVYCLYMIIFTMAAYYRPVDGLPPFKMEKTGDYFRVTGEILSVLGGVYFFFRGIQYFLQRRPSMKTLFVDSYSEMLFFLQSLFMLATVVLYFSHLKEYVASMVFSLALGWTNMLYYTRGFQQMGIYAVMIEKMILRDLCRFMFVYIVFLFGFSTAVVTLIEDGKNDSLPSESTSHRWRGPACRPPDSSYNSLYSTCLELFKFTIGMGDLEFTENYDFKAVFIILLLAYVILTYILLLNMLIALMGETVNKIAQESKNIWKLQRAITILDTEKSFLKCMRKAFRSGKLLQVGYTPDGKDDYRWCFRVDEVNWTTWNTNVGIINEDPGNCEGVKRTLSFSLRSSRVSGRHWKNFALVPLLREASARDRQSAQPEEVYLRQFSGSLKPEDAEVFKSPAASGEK

inhibition at 1000 µM [1]: ~20.1%
IC50 [2]: 180 ± 59.9 µM
IC50 [3]: 102 µM and ~100 µM
IC50 ([4]; I637A hTRPV3, 50 μM 2-APB, +80 mV, Hill fit, read-out: IC50, inhibition of I637A mutant outward currents): 306 ± 61.1 µM
channel current inhibition by 500 μM CA compared to WT ([4]; I637A mutant, 50 μM 2-APB, 500 μM CA): significantly diminished
inhibition of human TRPA1 current [6]: about 22.9 ± 12.0%
inhibition at 1000 µM [7]: ~20%
SMILES: O=C(O)/C=C/c1ccc(O)c(O)c1 [CA, caffeic acid]
cytotoxicity (cell viability) [5]: did not cause any noticeable cytotoxicity
